The values that follow come from ChEMBL document CHEMBL6121020, “Neuroprotective Indole Alkaloids from the Soil-Derived Fungus Trichocladium sp. XZ8” (2025).

Assay [1] has as its system PC-12. The assay can be described thus: Neuroprotective activity against RSL3-induced ferroptosis in rat PC-12 cells assessed as increase in survival rate at 10 uM preincubated with RSL3 stimulation followed by compound addition and measured after 24 hrs by CCK-8 assay (reference value: 54%). It counts as functional. On the technique in general: Tetrazolium assays rely on reduction of a dye to a coloured formazan, in cell work by metabolically active cells.

Assay [2] has as its system PC-12. The assay can be described thus: Neuroprotective activity against RSL3-induced ferroptosis in rat PC-12 cells assessed as increase in survival rate at 10 uM preincubated with RSL3 stimulation followed by compound addition and measured after 24 hrs by CCK-8 assay. The class given is functional, cell-based.
For assay [3], the system named is PC-12. The assay can be described thus: Downregulation of NCOA4 level in RSL3-induced rat PC-12 cells at 10 uM preincubated with compound for 24 hrs followed by RSL3 stimulation and measured after 24 hrs by Western blotting analysis. It counts as functional, cell-based. Particulars: time 48.0 hrs. A general note: Immunoblotting shows a protein as a band on a membrane.

Assay [4] has as its system PC-12. The assay can be described thus: Upregulation of SLC7A11 expression in RSL3-induced rat PC-12 cells at 10 uM preincubated with compound for 24 hrs followed by RSL3 stimulation and measured after 24 hrs by Western blotting analysis. The class given is functional, cell-based. The following applies: time 48.0 hrs.
The test system of assay [5] is PC-12. The assay can be described thus: Upregulation of ferritin level in RSL3-induced rat PC-12 cells at 10 uM preincubated with compound for 24 hrs followed by RSL3 stimulation and measured after 24 hrs by Western blotting analysis. The class given is functional, cell-based. The following applies: time 48.0 hrs.
Assay [6] concerns PC-12. The assay can be described thus: Anti-ferroptosis activity against RSL3-induced ferroptosis in rat PC-12 cells assessed as decrease in lipid peroxidation at 10 uM by BODIPY-C11 581/591 staining based fluorescence microscopic analysis. It counts as functional, cell-based.
The test system of assay [7] is PC-12. The assay can be described thus: Anti-ferroptosis activity against RSL3-induced ferroptosis in rat PC-12 cells assessed as increase in GSH level at 10 uM preincubated with compound for 24 hrs followed by RSL3 stimulation and measured after 24 hrs by […] method. The class given is functional, cell-based. The following applies: time 48.0 hrs.
Assay [8] deals with PC-12. The assay can be described thus: Effect on SLC7A11 expression in RSL3-induced rat PC-12 cells at 10 uM preincubated with compound for 24 hrs followed by RSL3 stimulation and measured after 24 hrs by Western blotting analysis. The following applies: time 48.0 hrs. It counts as functional, cell-based.

Structures are written as SMILES. Active and inactive are the calls of the source. The calls are words filed in the database; no cut-off is given here.

Consider `CC(C)=CCc1ccc2c(c1)NC(=O)C2`, for which the Activity in assay [1] amounted to 77%.

For the compound `OCc1c[nH]c2ccccc12`, the outcome in assay [2] was Active.

For `C/C=C(C)/C=C(\C)[C@H]1C(C)=C[C@]2(C)C[C@H](C)CC[C@H]2[C@@H]1C(=O)[C@H]1C(=O)NC(=O)[C@@H]1Cc1c[nH]c2ccccc12`, the result in assay [3], in assay [2], in assay [4], in assay [5] and in assay [6] was Active.

Take `C/C(=C\Cc1ccc2c(c1)NC(=O)C2)C(=O)O`: the result in assay [7], in assay [3], in assay [5] and in assay [6] was Active. Further, the outcome in assay [8] was inactive. Besides, the Activity in assay [1] is recorded as 84%.

Turning to `CC(=O)NCCc1ccc(O)cc1`, in assay [1], the Activity is recorded as 83%.
